Patent publication US7727986B2, “Pesticide pyrimidinyloxy substituted phenylamidine derivatives” (Bayer CropScience AG, priority 2005, dated 2010)

Experiment: logP by HPLC on reversed-phase column (C 18), EEC Directive 79/831 Annex V.A8
Assay type: physicochemical
Settings: HPLC, 0.1% aqueous formic acid and acetonitrile, 40° C.; pH 2.3
Experimental: Temperature: 40° C.; Mobile phases: 0.1% aqueous formic acid and acetonitrile; linear gradient from 10% acetonitrile to 90% acetonitrile.
`CCN(C)C=Nc1cc(C)c(Oc2ccnc(N(C)c3ccccc3)n2)cc1C` [Compound 1, N′-{2,5-dimethyl-4-[2-(methyl-phenyl-amino)-pyrimidin-4-yloxy]-phenyl}-N-ethyl-N-methyl-formamidine] gave a logPa of 1.61.
Compound `CCN(C)C=Nc1cc(C)c(Oc2ccnc(Oc3cccc(Cl)c3C)n2)cc1C` [Compound 2, N′-{4-[2-(3-chloro-2-methyl-phenoxy)-pyrimidin-4-yloxy]-2,5-dimethyl-phenyl}-N-ethyl-N-methyl-formamidine] has a logPa of 2.08.
For `CCN(C)C=Nc1cc(C)c(Oc2cc(C)nc(Cl)n2)cc1C` [Compound 3, N′-{4-[(2-chloro-6-methylpyrimidin-4-yl)oxy]-2,5-dimethylphenyl}-N-ethyl-N-methylimido-formamide], the logPa was 1.45.
For `CCN(C)C=Nc1cc(C)c(Oc2ncnc(Oc3cccc(Cl)c3C)c2C)cc1C` [Compound 8], the logPa was 2.6.
Work on `CCN(C)C=Nc1cc(C)c(Oc2ccnc(N(C)CC)n2)cc1C` [Compound 10] yielded a logPa of 0.82.
`CCN(C)C=Nc1cc(C)c(Oc2ccnc(OC)n2)cc1C` [Compound 11] showed a logPa of 1.16.
`CCCN(C)C=Nc1cc(C)c(Oc2ccnc(OC)n2)cc1C` [Compound 12] gave a logPa of 1.38.
Work on `CCCN(C)c1nccc(Oc2cc(C)c(N=CN(C)CC)cc2C)n1` [Compound 13] yielded a logPa of 1.25.
Compound `CCN(C)C=Nc1cc(C)c(Oc2cc(Cl)ncn2)cc1C` [Compound 15] has a logPa of 1.4.
With `CCCN(C)C=Nc1cc(C)c(Oc2cc(Cl)ncn2)cc1C` [Compound 16] the logPa was 1.56.
Work on `Cc1cc(Oc2cc(Cl)ncn2)c(C)cc1N=CN(C)C(C)C` [Compound 17] yielded a logPa of 1.54.
In the case of `CCN(C)C=Nc1cc(C)c(Oc2ccnc(N3CCOCC3)n2)cc1C` [Compound 19], the logPa was 1.3.
`CCCN(C)C=Nc1cc(C)c(Oc2ccnc(N3CCOCC3)n2)cc1C` [Compound 20] showed a logPa of 3.13.
In the case of `CCN(C)C=Nc1cc(C)c(Oc2ccnc(N3CCCCC3)n2)cc1C` [Compound 21], the logPa was 1.4.
For `CCCN(C)C=Nc1cc(C)c(Oc2ccnc(N3CCCCC3)n2)cc1C` [Compound 22], the logPa was 1.58.
For `CCN(C)C=Nc1cc(C)c(Oc2ccnc(Cl)n2)cc1C` [Compound 23], the logPa was 1.3.
Work on `CCCN(C)C=Nc1cc(C)c(Oc2ccnc(Cl)n2)cc1C` [Compound 24] yielded a logPa of 1.44.
For `Cc1cc(Oc2ccnc(Cl)n2)c(C)cc1N=CN(C)C(C)C` [Compound 25], the logPa was 1.4.
In the case of `COc1nccc(Oc2cc(C)c(N=CN(C)C(C)C)cc2C)n1` [Compound 26], the logPa was 1.4.
With `CCN(C)C=Nc1cc(C)c(Oc2nc(Cl)ncc2C)cc1C` [Compound 27] the logPa was 1.42.
For `CCCN(C)C=Nc1cc(C)c(Oc2nc(Cl)ncc2C)cc1C` [Compound 28], the logPa was 1.68.
Work on `Cc1cc(Oc2ccnc(Nc3cccc(Cl)c3)n2)c(C)cc1N=CN(C)C(C)C` [Compound 29] yielded a logPa of 2.04.
`CCN(C)C=Nc1cc(C)c(Oc2ccnc(Nc3cccc(Cl)c3)n2)cc1C` [Compound 30] gave a logPa of 1.94.
In the case of `Cc1cc(Oc2ccnc(N3C=NCC3)n2)c(C)cc1N=CN(C)C(C)C` [Compound 31], the logPa was 1.01.
In the case of `CCCN(C)C=Nc1cc(C)c(Oc2cc(C)nc(Cl)n2)cc1C` [Compound 32], the logPa was 1.62.
`Cc1cc(Oc2ccnc(N3CCOCC3)n2)c(C)cc1N=CN(C)C(C)C` [Compound 33] showed a logPa of 1.46.
For `Cc1cc(Oc2ccnc(N3CCCCC3)n2)c(C)cc1N=CN(C)C(C)C` [Compound 34], the logPa was 1.56.
`CCN(C)C=Nc1cc(C)c(Oc2ccnc(Oc3ccccc3)n2)cc1C` [Compound 35] showed a logPa of 1.68.
With `CCCN(C)C=Nc1cc(C)c(Oc2ccnc(N(C)C)n2)cc1C` [Compound 38] the logPa was 0.89.
Work on `CCN(C)C=Nc1cc(C)c(Oc2cc(OC)ncn2)cc1C` [Compound 39] yielded a logPa of 1.32.
Compound `CCCN(C)C=Nc1cc(C)c(Oc2cc(OC)ncn2)cc1C` [Compound 40] has a logPa of 1.47.
With `CCCN(C)C=Nc1cc(C)c(Oc2cc(N(C)CC)ncn2)cc1C` [Compound 42] the logPa was 1.6.
Compound `CCN(C)C=Nc1cc(C)c(Oc2cc(N(C)CC)ncn2)cc1C` [Compound 43] has a logPa of 1.46.
For `CCOc1nccc(Oc2cc(C)c(N=CN(C)C(C)C)cc2C)n1` [Compound 44], the logPa was 1.62.
Compound `CCN(C)c1cc(Oc2cc(C)c(N=CN(C)C(C)C)cc2C)ncn1` [Compound 45] has a logPa of 1.56.
Compound `Cc1cc(Oc2nc(Cl)ncc2C)c(C)cc1N=CN(C)C(C)C` [Compound 46] has a logPa of 1.62.
For `CCOc1nccc(Oc2cc(C)c(N=CN(C)CC)cc2C)n1` [Compound 47], the logPa was 1.47.
Work on `COc1cc(Oc2cc(C)c(N=CN(C)C(C)C)cc2C)ncn1` [Compound 48] yielded a logPa of 1.49.
In the case of `CCCN(C)c1cc(Oc2cc(C)c(N=CN(C)CC)cc2C)ncn1` [Compound 49], the logPa was 1.74.
Work on `CCCN(C)C=Nc1cc(C)c(Oc2ccnc(OCC)n2)cc1C` [Compound 50] yielded a logPa of 1.55.
`CCCN(C)C=Nc1cc(C)c(Oc2cc(N(C)CCC)ncn2)cc1C` [Compound 51] gave a logPa of 1.79.
`CCCN(C)C=Nc1cc(C)c(Oc2ccnc(Nc3cccc(Cl)c3)n2)cc1C` [Compound 52] showed a logPa of 2.06.
`CCCN(C)c1cc(Oc2cc(C)c(N=CN(C)C(C)C)cc2C)ncn1` [Compound 53] showed a logPa of 1.77.
Compound `CCN(C)C=Nc1cc(C)c(Oc2cc(Cl)nc(C(C)(C)C)n2)cc1C` [Compound 59] has a logPa of 2.61.
With `Cc1cc(Oc2cc(Cl)nc(C(C)(C)C)n2)c(C)cc1N=CN(C)C(C)C` [Compound 60] the logPa was 2.8.
Compound `Cc1cc(Oc2ccnc(N(C)c3ccccc3)n2)c(C)cc1N=CN1CCCCC1` [Compound 61] has a logPa of 1.84.
With `Cc1cc(Oc2ccnc(Oc3ccccc3)n2)c(C)cc1N=CN(C)C` [Compound 63] the logPa was 1.65.
`CCN(C)C=Nc1cc(C)c(Oc2nc(Cl)ncc2Cl)cc1C` [Compound 64] showed a logPa of 1.67.
With `Cc1cc(Oc2ccnc(Oc3ccccc3)n2)c(C)cc1N=CN(C)C(C)C` [Compound 66] the logPa was 1.81.
Work on `CCCN(C)C=Nc1cc(C)c(Oc2ccnc(Oc3cccc(Cl)c3)n2)cc1C` [Compound 67] yielded a logPa of 2.14.
Compound `Cc1cc(Oc2ccnc(Oc3cccc(Cl)c3)n2)c(C)cc1N=CN(C)C(C)C` [Compound 68] has a logPa of 2.12.
Work on `CCN(C)C=Nc1cc(C)c(Oc2cc(Cl)nc(Cl)n2)cc1C` [Compound 69] yielded a logPa of 1.67.
With `CCN(C)C=Nc1cc(C)c(Oc2ccnc(Oc3ccc(F)c(F)c3)n2)cc1C` [Compound 70] the logPa was 1.93.
Work on `CCN(C)C=Nc1cc(C)c(Oc2ccnc(Oc3ccc(OC)c(OC)c3)n2)cc1C` [Compound 71] yielded a logPa of 1.65.
Compound `CCN(C)C=Nc1cc(C)c(Oc2ccnc(Oc3ccccc3)n2)cc1C` [Compound 72] has a logPa of 1.96.
With `CCN(C)C=Nc1cc(C)c(Oc2cc(C)nc(Oc3ccccc3)n2)cc1C` [Compound 73] the logPa was 1.99.
Compound `COc1ccc(Oc2nccc(Oc3cc(C)c(N=CN4CCCCC4)cc3C)n2)cc1OC` [Compound 74] has a logPa of 1.80.
Compound `Cc1cc(Oc2cc(C)c(N=CN3CCCCC3)cc2C)nc(Oc2ccccc2)n1` [Compound 75] has a logPa of 2.09.
Compound `Cc1cc(Oc2ccnc(Oc3ccccc3)n2)c(C)cc1N=CN1CCCCC1` [Compound 76] has a logPa of 2.02.
Work on `CCN(C)C=Nc1cc(C)c(Oc2ccnc(Oc3ccc(C(C)(C)C)cc3)n2)cc1C` [Compound 77] yielded a logPa of 2.65.
`Cc1cc(Oc2ccnc(Oc3ccc(C(C)(C)C)cc3)n2)c(C)cc1N=CN1CCCCC1` [Compound 78] showed a logPa of 2.75.
Work on `CCN(C)C=Nc1cc(C)c(Oc2ccnc(Oc3cccc(C)c3)n2)cc1C` [Compound 79] yielded a logPa of 2.02.
Compound `Cc1cccc(Oc2nccc(Oc3cc(C)c(N=CN4CCCCC4)cc3C)n2)c1` [Compound 80] has a logPa of 2.16.
With `CCN(C)C=Nc1cc(C)c(Oc2ccnc(Oc3ccc(Cl)cc3)n2)cc1C` [Compound 81] the logPa was 2.11.
In the case of `Cc1cc(Oc2ccnc(Oc3ccc(Cl)cc3)n2)c(C)cc1N=CN1CCCCC1` [Compound 82], the logPa was 2.18.
In the case of `CCc1ncnc(Oc2cc(C)c(N=CN(C)CC)cc2C)c1Cl` [Compound 83], the logPa was 1.91.
`CCCN(C)C=Nc1cc(C)c(Oc2ncnc(CC)c2Cl)cc1C` [Compound 84] gave a logPa of 1.99.
`CCc1ncnc(Oc2cc(C)c(N=CN3CCCCC3)cc2C)c1Cl` [Compound 85] gave a logPa of 1.98.
For `CCc1ncnc(Oc2cc(C)c(N=CN3CCCC3)cc2C)c1Cl` [Compound 86], the logPa was 1.87.
With `CCN(C)C=Nc1cc(C)c(Oc2ccnc(Oc3ccc(C(F)(F)F)cc3)n2)cc1C` [Compound 87] the logPa was 2.37.

Same assay, conditions: measured at pH = 4 (footnote a)
With `CCN(C)C=Nc1cc(C)c(Oc2cc(C(C)(C)C)ncn2)cc1C` [Compound 4] the logPa was 1.98^a.
For `CCN(C)C=Nc1cc(C)c(Oc2cc(Oc3cccc(C(F)(F)F)c3)ncn2)cc1C` [Compound 5], the logPa was 4.35^a.
With `CCN(C)C=Nc1cc(C)c(Oc2cc(-c3cccc(C(F)(F)F)c3)ncn2)cc1C` [Compound 6] the logPa was 3.19^a.
With `CCN(C)C=Nc1cc(C)c(Oc2cc(C(F)(F)F)ncn2)cc1C` [Compound 7] the logPa was 1.85^a.
With `CCN(C)C=Nc1cc(C)c(Oc2cc(Oc3cccc(C(C)(C)C)c3)ncn2)cc1C` [Compound 9] the logPa was 4.9^a.

Same assay, conditions: pH 2.3
For `Cc1cc(Oc2ccnc(Cl)n2)c(C)cc1N` [4-(2-chloro-pyrimidin-4-yloxy)-2.5-dimethyl-phenylamine], the “log P (pH 2.3)” value was 1.37.

Same assay, conditions: reversed-phase C18 HPLC column; pH 2.3; value in preparation example text; read-out: log P (pH 2.3)
With `CCN(C)c1nc(Oc2cc(C)c(N)cc2C)ncc1Cl` [2-(4-amino-2,5-dimethylphenoxy)-5-chloro-N-ethyl-N-methylpyrimidin-4-amine] the chromatographic logP was 1.88.
In the case of `Cc1cc(Oc2ccnc(Oc3cccc(Cl)c3C)n2)c(C)cc1N` [4-[2-(3-chloro-2-methyl-phenoxy)-pyrimidin-4-yloxy]-2,5-dimethyl-phenylamine], the chromatographic logP was 2.81.
Compound `Cc1cc(Oc2cc(C)c(N)cc2C)nc(Cl)n1` [4-[(2-chloro-6-methylpyrimidin-4-yl)oxy]-2,5-dimethylaniline] has a chromatographic logP of 1.62.
With `CCN(C)c1nc(Oc2cc(C)c([N+](=O)[O-])cc2C)ncc1Cl` [5-chloro-2-(2,5-dimethyl-4-nitrophenoxy)-N-ethyl-N-methylpyrimidin-4-amine] the chromatographic logP was 4.07.
Work on `CCN(C)C=Nc1cc(C)c(Oc2ccnc(N(C)c3ccccc3)n2)cc1C` [Compound 1, N′-{2,5-dimethyl-4-[2-(methyl-phenyl-amino)-pyrimidin-4-yloxy]-phenyl}-N-ethyl-N-methyl-formamidine] yielded a chromatographic logP of 1.61.
For `CCN(C)C=Nc1cc(C)c(Oc2ccnc(Oc3cccc(Cl)c3C)n2)cc1C` [Compound 2, N′-{4-[2-(3-chloro-2-methyl-phenoxy)-pyrimidin-4-yloxy]-2,5-dimethyl-phenyl}-N-ethyl-N-methyl-formamidine], the chromatographic logP was 2.08.
`CCN(C)C=Nc1cc(C)c(Oc2cc(C)nc(Cl)n2)cc1C` [Compound 3, N′-{4-[(2-chloro-6-methylpyrimidin-4-yl)oxy]-2,5-dimethylphenyl}-N-ethyl-N-methylimido-formamide] gave a chromatographic logP of 1.45.
